# Tests used:
# [1] = target: T1, human TLR9 (Homo sapiens, UniProt Q9NR96); assay: Toll-Like Receptor (TLR) screening assay, TLR9; assay type: cell-based; conditions: 10 μM
# T1 sequence (Q9NR96 26-1032): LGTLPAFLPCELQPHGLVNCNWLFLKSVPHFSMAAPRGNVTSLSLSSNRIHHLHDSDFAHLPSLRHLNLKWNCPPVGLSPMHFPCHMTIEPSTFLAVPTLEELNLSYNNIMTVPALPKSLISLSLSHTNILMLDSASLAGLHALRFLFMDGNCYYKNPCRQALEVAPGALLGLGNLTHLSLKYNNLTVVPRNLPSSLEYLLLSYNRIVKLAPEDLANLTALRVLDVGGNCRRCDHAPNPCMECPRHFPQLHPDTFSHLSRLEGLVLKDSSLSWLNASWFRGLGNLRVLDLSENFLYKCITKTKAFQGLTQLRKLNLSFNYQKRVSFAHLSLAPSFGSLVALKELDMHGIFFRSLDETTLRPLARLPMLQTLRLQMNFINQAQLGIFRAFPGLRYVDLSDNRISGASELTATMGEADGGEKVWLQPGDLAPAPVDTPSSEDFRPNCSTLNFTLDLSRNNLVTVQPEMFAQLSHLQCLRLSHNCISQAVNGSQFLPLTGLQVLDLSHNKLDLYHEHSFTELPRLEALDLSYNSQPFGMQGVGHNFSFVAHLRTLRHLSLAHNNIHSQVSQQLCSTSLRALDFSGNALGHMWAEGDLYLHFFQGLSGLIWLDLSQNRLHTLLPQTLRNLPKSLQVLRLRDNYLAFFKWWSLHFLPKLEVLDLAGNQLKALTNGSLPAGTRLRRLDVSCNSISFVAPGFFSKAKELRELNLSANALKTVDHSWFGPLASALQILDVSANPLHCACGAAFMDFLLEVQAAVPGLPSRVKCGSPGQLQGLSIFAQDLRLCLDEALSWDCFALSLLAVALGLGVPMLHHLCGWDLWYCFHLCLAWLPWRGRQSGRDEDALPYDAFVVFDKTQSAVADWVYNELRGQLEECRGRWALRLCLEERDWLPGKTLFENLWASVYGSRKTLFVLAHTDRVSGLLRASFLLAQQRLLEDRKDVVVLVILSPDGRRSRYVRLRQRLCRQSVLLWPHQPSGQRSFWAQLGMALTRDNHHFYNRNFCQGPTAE
# [2] = target: T2, human TLR8 (Homo sapiens, UniProt Q9NR97); assay: Toll-Like Receptor (TLR) screening assay, TLR8; assay type: cell-based; conditions: 10 μM
# T2 sequence (Q9NR97 27-1041): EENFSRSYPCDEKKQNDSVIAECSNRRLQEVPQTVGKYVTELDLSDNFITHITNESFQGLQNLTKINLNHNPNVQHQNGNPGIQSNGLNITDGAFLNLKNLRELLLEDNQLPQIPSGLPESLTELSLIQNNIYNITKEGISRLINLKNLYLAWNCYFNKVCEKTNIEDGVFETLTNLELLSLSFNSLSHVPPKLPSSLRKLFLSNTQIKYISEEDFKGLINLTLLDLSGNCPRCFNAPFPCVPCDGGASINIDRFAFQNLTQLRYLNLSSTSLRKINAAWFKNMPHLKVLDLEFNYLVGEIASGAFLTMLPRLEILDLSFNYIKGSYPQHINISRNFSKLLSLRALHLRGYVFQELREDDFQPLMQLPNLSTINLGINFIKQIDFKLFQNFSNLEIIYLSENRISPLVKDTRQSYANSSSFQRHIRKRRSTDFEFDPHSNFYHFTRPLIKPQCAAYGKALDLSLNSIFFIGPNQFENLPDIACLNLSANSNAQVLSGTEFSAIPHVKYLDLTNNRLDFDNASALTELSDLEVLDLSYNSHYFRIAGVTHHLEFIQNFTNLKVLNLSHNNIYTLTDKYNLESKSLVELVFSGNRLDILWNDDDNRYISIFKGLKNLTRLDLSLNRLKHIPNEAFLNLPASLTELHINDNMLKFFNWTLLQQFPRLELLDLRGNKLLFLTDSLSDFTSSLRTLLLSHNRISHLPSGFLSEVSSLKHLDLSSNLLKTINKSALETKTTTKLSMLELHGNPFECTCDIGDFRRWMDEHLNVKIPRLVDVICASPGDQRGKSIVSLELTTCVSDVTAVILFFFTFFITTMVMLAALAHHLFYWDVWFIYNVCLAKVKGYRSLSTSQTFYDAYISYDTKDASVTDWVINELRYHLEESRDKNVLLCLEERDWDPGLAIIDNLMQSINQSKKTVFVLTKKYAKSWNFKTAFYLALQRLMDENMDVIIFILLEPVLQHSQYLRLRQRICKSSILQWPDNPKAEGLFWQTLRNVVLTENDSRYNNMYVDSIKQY
# [3] = tested on: cultured cancer cell types (including MDA-MB-231, PC-3, A375 and SK-OV-3 among others); assay: activity against cultured cancer cells in combination with DFMO; assay type: cell-based
# Source text: Cancer cells can circumvent the ability of drugs such as α-difluoromethylornithine (DFMO) based on inhibition of polyamine biosynthesis, from completely depleting their internal polyamines by the importation of these molecules from external sources. […] The resulting novel two-drug combination therapy targeting cellular polyamine metabolism has shown exceptional efficacy against cutaneous squamous cell carcinomas (SCCs) in a transgenic ornithine decarboxylase (ODC) mouse model developed by us for the study of skin cancer. […] The availability of a potent polyamine transport inhibitor allows, for the first time, for a real test of the hypothesis that starving cells of polyamines will lead to objective clinical response. This therapy is molecularly-targeted, relatively nontoxic at the proposed dose, and consists of both a very well-characterized drug and a member of a novel chemical class.
# [4] = target: CXCR4 receptor (Homo sapiens, UniProt P61073); assay: binding of radiolabeled SDF-1α to the CXCR4 receptor; conditions: 10 μM
# Protocol: Alternative mechanisms might also be responsible for the observed immune inducing effects of PBT. The FDA-approved compound, plerixafor (also known as AMD3100), is used as a hematopoietic stem cell mobilizer for use in combination with granulocyte-colony stimulating factor (G-CSF) for peripheral blood collection and subsequent autologous transplantation in patients with non-Hodgkin's lymphoma and multiple myeloma. […] We tested the effect of 10 μM AMXT 1501 on the binding of radiolabeled SDF-1α to the CXCR4 receptor and found no inhibition. […] Since an interaction between AMXT 1501 and the CXCR4 receptor was not observed, a polyamine-dependant mechanism of immune-suppression is maintained.
# Sequence of CXCR4 receptor (P61073 whole entry): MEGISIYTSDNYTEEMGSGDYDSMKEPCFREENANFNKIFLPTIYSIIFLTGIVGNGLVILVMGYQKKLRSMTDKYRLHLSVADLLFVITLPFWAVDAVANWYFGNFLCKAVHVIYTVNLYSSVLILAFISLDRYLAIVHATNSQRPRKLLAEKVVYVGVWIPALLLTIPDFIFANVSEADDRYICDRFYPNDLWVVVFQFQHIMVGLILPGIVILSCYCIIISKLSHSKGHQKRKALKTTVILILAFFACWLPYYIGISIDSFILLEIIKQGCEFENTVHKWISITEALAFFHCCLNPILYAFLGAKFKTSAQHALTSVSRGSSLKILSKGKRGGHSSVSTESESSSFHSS
structure (smiles),measurement,setting,value
"CCCCCCCCCCCCCCCC(=O)NCCCC[C@@H](N)C(=O)NCCCNCCCCNCCCN [AMXT 1501, D-Lys(C16acyl)-Spm]",activity on TLR9,[1],no significant activity
same,activity on TLR8,[2],no significant activity
same,nature of cell culture effects,[3],cytostatic and not cytotoxic
same,potency compared with AMXT 1426,[3]; in combination with DFMO,several orders of magnitude higher potency
same,inhibition of radiolabeled SDF-1α binding,[4],no inhibition

# From patent publication US20150050299A1, “METHODS FOR ENHANCING IMMUNE RESPONSE” (priority 2010, published 2015)
